Reference: ChEMBL document CHEMBL1201862, “PubChem BioAssay data set” (2004)
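Five compound concentrations were applied to cells in 96-well plates for 48 hours; endpoints were derived by simple linear interpolation of the resulting dose-response curve. GI50 marks 50% less growth.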 Active and inactive are the calls of the source. No stated cut-off is given here; in the data, active = GI50 up to about 1.1 µM and inactive = higher.

How the values were obtained:
Assay in all cases: NCI tumour cell line growth inhibition, 48 h
MDA-MB-435 = system: MDA-MB-435
HT-29 = system: HT-29
EKVX = system: EKVX
SK-OV-3 = system: SK-OV-3
A498 = system: A498
T47D = system: T47D
K562 = system: K562
SNB-19 = system: SNB-19
SK-MEL-2 = system: SK-MEL-2
OVCAR-3 = system: OVCAR-3
NCI-H460 = system: NCI-H460
SN12C = system: SN12C
HOP-62 = system: HOP-62
CAKI-1 = system: CAKI-1
HL-60 = system: HL-60
SW-620 = system: SW-620
RPMI-8226 = system: RPMI-8226
CCRF-CEM = system: CCRF-CEM
BT-549 = system: BT-549

Compound | GI50 (MDA-MB-435) | GI50 (HT-29) | GI50 (EKVX) | GI50 (SK-OV-3) | GI50 (A498) | GI50 (T47D) | GI50 (K562) | GI50 (SNB-19) | GI50 (SK-MEL-2) | GI50 (OVCAR-3) | GI50 (NCI-H460) | GI50 (SN12C) | GI50 (HOP-62) | GI50 (CAKI-1) | GI50 (HL-60) | GI50 (SW-620) | GI50 (RPMI-8226) | GI50 (CCRF-CEM) | GI50 (BT-549)
O=C(O)CCCC#CCCCC(=O)O | > 100 µM (inactive) | > 100 µM (inactive) | > 100 µM (inactive) | > 100 µM (inactive) | > 100 µM (inactive) | > 100 µM (inactive) | > 100 µM (inactive) | > 100 µM (inactive) | > 100 µM (inactive) | > 100 µM (inactive) | > 100 µM (inactive) | > 100 µM (inactive) | > 100 µM (inactive) | > 100 µM (inactive) | – | – | – | – | –
C=C(C(=O)OC)[C@H]1CC/C(C)=C/CC/C(C)=C/CC[C@@]2(C)O[C@@H]2C1 | 22.9 µM (inactive) | 17.3 µM (inactive) | 18.7 µM (inactive) | 43.7 µM (inactive) | 22.1 µM (inactive) | 16.3 µM (inactive) | 11.9 µM (inactive) | > 100 µM (inactive) | 15.3 µM (inactive) | 17.7 µM (inactive) | – | 16.9 µM (inactive) | 20.7 µM (inactive) | 13.2 µM (inactive) | 13 µM (inactive) | 18.5 µM (inactive) | 14.4 µM (inactive) | 13.1 µM (inactive) | –
C[C@@H](CO)C1=CC(C#C[Si](C)(C)C)N(C(=O)Oc2ccccc2)c2ccccc21 (stereo not given in full) | 3.45 µM (inactive) | 16 µM (inactive) | 23.3 µM (inactive) | 23.3 µM (inactive) | – | 18.2 µM (inactive) | 1.49 µM (inactive) | 27.2 µM (inactive) | 16.9 µM (inactive) | 13.2 µM (inactive) | 18.1 µM (inactive) | 16.8 µM (inactive) | 15 µM (inactive) | 24 µM (inactive) | 17.1 µM (inactive) | 24 µM (inactive) | 24.9 µM (inactive) | 20.4 µM (inactive) | –
C=CCCC1(CCP(=O)(c2ccccc2)c2ccccc2)OCCO1 | > 100 µM (inactive) | > 100 µM (inactive) | > 100 µM (inactive) | – | – | – | > 100 µM (inactive) | > 100 µM (inactive) | > 100 µM (inactive) | > 100 µM (inactive) | > 100 µM (inactive) | > 100 µM (inactive) | > 100 µM (inactive) | – | > 100 µM (inactive) | > 100 µM (inactive) | > 100 µM (inactive) | > 100 µM (inactive) | > 100 µM (inactive)
c1ccc(C2(c3ccccc3)S/C(=C3/SC(c4ccccc4)(c4ccccc4)c4ccccc43)c3ccccc32)cc1 | > 100 µM (inactive) | > 100 µM (inactive) | > 100 µM (inactive) | > 100 µM (inactive) | > 100 µM (inactive) | – | > 100 µM (inactive) | > 100 µM (inactive) | > 100 µM (inactive) | > 100 µM (inactive) | > 100 µM (inactive) | > 100 µM (inactive) | > 100 µM (inactive) | > 100 µM (inactive) | > 100 µM (inactive) | > 100 µM (inactive) | – | > 100 µM (inactive) | > 100 µM (inactive)
COc1c(C)c(C/C=C(\C)CC/C=C(\C)CCC=C(C)C)c(OC)c(OC)c1OC | 21.5 µM (inactive) | 76.2 µM (inactive) | 83.9 µM (inactive) | > 100 µM (inactive) | – | – | > 100 µM (inactive) | > 100 µM (inactive) | > 100 µM (inactive) | > 100 µM (inactive) | > 100 µM (inactive) | > 100 µM (inactive) | > 100 µM (inactive) | > 100 µM (inactive) | – | > 100 µM (inactive) | – | 56.5 µM (inactive) | > 100 µM (inactive)
CC(O)[C@@]1(c2ccccc2)CC2(CCN(C)CC2)O[C@H]1C (stereo not given in full) | > 100 µM (inactive) | > 100 µM (inactive) | > 100 µM (inactive) | 41 µM (inactive) | > 100 µM (inactive) | 33.9 µM (inactive) | > 100 µM (inactive) | > 100 µM (inactive) | > 100 µM (inactive) | > 100 µM (inactive) | > 100 µM (inactive) | – | > 100 µM (inactive) | > 100 µM (inactive) | 26.2 µM (inactive) | > 100 µM (inactive) | > 100 µM (inactive) | 0.465 µM (active) | –
Cc1cc(C)c(-c2no/c(=N\S(=O)(=O)c3ccc(Cl)cc3)o2)c(C)c1 | > 100 µM (inactive) | > 100 µM (inactive) | > 100 µM (inactive) | > 100 µM (inactive) | > 100 µM (inactive) | 93.3 µM (inactive) | 49.5 µM (inactive) | > 100 µM (inactive) | 34 µM (inactive) | > 100 µM (inactive) | > 100 µM (inactive) | > 100 µM (inactive) | > 100 µM (inactive) | > 100 µM (inactive) | 42.1 µM (inactive) | > 100 µM (inactive) | 37.2 µM (inactive) | > 100 µM (inactive) | –
COc1nc(C)nc2c1ncn2Cc1ccccc1 | > 100 µM (inactive) | > 100 µM (inactive) | 80.7 µM (inactive) | > 100 µM (inactive) | > 100 µM (inactive) | > 100 µM (inactive) | > 100 µM (inactive) | > 100 µM (inactive) | – | > 100 µM (inactive) | > 100 µM (inactive) | > 100 µM (inactive) | > 100 µM (inactive) | 66.2 µM (inactive) | > 100 µM (inactive) | > 100 µM (inactive) | > 100 µM (inactive) | > 100 µM (inactive) | –
C=CCOC(=O)Cn1ccc(=O)[nH]c1=O | – | > 100 µM (inactive) | > 100 µM (inactive) | > 100 µM (inactive) | > 100 µM (inactive) | > 100 µM (inactive) | > 100 µM (inactive) | > 100 µM (inactive) | > 100 µM (inactive) | – | > 100 µM (inactive) | > 100 µM (inactive) | > 100 µM (inactive) | > 100 µM (inactive) | > 100 µM (inactive) | > 100 µM (inactive) | > 100 µM (inactive) | > 100 µM (inactive) | –
CCOc1cc2c(cc1O)/C(=N/NS(=O)(=O)c1ccc(C)cc1)C[C@@H]1[C@@H]2CC[C@]2(C)[C@@H](O)CC[C@@H]12 | – | 2.89 µM (inactive) | 13 µM (inactive) | 10.5 µM (inactive) | 9.31 µM (inactive) | 6.87 µM (inactive) | 1.02 µM (active) | 8.79 µM (inactive) | 3.94 µM (inactive) | – | 4.65 µM (inactive) | – | – | 12.6 µM (inactive) | – | 3.52 µM (inactive) | 2.92 µM (inactive) | 3.79 µM (inactive) | 3.7 µM (inactive)
CC(O)C(CO)NC(=O)C1CSSCC(NC(=O)C(N)Cc2ccccc2)C(=O)NC(Cc2ccccc2)C(=O)NC(Cc2c[nH]c3ccccc23)C(=O)NC(CCCCN)C(=O)NC(C(C)O)C(=O)N1 (stereo not given) | > 100 µM (inactive) | > 100 µM (inactive) | > 100 µM (inactive) | – | > 100 µM (inactive) | > 100 µM (inactive) | > 100 µM (inactive) | > 100 µM (inactive) | – | > 100 µM (inactive) | > 100 µM (inactive) | > 100 µM (inactive) | > 100 µM (inactive) | > 100 µM (inactive) | > 100 µM (inactive) | > 100 µM (inactive) | > 100 µM (inactive) | > 100 µM (inactive) | –
COC(=O)CCN1CCN(CCO)CC1C (stereo not given) | > 10 µM (inactive) | > 10 µM (inactive) | > 10 µM (inactive) | > 10 µM (inactive) | > 10 µM (inactive) | > 10 µM (inactive) | > 10 µM (inactive) | > 10 µM (inactive) | > 10 µM (inactive) | > 10 µM (inactive) | > 10 µM (inactive) | > 10 µM (inactive) | > 10 µM (inactive) | > 10 µM (inactive) | > 10 µM (inactive) | > 10 µM (inactive) | > 10 µM (inactive) | > 10 µM (inactive) | –
CC1(C)c2ccccc2C(O)C12CCC(=O)CC2 (stereo not given) | > 100 µM (inactive) | > 100 µM (inactive) | > 100 µM (inactive) | > 100 µM (inactive) | > 100 µM (inactive) | > 100 µM (inactive) | > 100 µM (inactive) | > 100 µM (inactive) | > 100 µM (inactive) | > 100 µM (inactive) | > 100 µM (inactive) | > 100 µM (inactive) | > 100 µM (inactive) | – | > 100 µM (inactive) | > 100 µM (inactive) | > 100 µM (inactive) | – | –
O=C(O)CCC(c1ccccc1)(c1ccccc1)c1ccccc1 | 33 µM (inactive) | 36.1 µM (inactive) | 36 µM (inactive) | 31.9 µM (inactive) | 41.4 µM (inactive) | 0.647 µM (active) | 37.7 µM (inactive) | 42.3 µM (inactive) | 22.9 µM (inactive) | 14.7 µM (inactive) | 25.2 µM (inactive) | 38.9 µM (inactive) | 34.8 µM (inactive) | – | 37.2 µM (inactive) | 39.8 µM (inactive) | 27 µM (inactive) | 64.3 µM (inactive) | –
CC(=O)C(C(C)=O)[C@@H]1OC(C)(C)O[C@@H]1[C@H]1COC(C)(C)O1 | 38.7 µM (inactive) | 32.8 µM (inactive) | 27.7 µM (inactive) | – | 93.3 µM (inactive) | – | 30.2 µM (inactive) | 64.1 µM (inactive) | 28.5 µM (inactive) | 62.8 µM (inactive) | 61.5 µM (inactive) | 20.8 µM (inactive) | 45.9 µM (inactive) | 53.2 µM (inactive) | 26.6 µM (inactive) | 36.6 µM (inactive) | 34.7 µM (inactive) | – | 34.9 µM (inactive)
